# Source: US20060069132A1, “Azolecarboxamide herbicides” (priority 2004, published 2006)
# How the values were obtained:
# [1] = system: large crabgrass; experiment: Test C pre-/postemergence herbicide test; assay type: in vivo, Digitaria sanguinalis; settings: for Plant response rating (0 = no effect, 100 = complete control), Crabgrass, Large: 125 g ai/ha
# Text: (§1) Seeds of plant species selected from bermudagrass (Cynodon dactylon (L.) Pers.), Surinam grass (Urochloa decumbens (Staph) R. D. Webster, previously named Brachiaria decumbens Stapf), cocklebur (Xanthium strumarium L.), corn (Zea mays L.), large crabgrass (Digitaria sanguinalis (L.) Scop.), woolly cupgrass (Eriochloa villosa (Thunb.) Kunth), giant foxtail (Setaria faberi Herrm.), goosegrass (Eleusine indica (L.) Gaertn.), johnsongrass (Sorghum halepense (L.) Pers.), kochia (Kochia scoparia (L.) Schrad.), lambsquarters (Chenopodium album L.), morningglory (Ipomoea coccinea L.), eastern black nightshade (Solanum ptycanthum Dunal), yellow nutsedge (Cyperus esculentus L.), pigweed (Amaranthus retroflexus L.), common ragweed (Ambrosia elatior L.), soybean (Glycine max (L.) Merr.), common (oilseed) sunflower (Helianthus annuus L.) and velvetleaf (Abutilon theophrasti Medik.) were planted and treated preemergence with test chemicals formulated in a non-phytotoxic solvent mixture which included a surfactant.
# (§2) At the same time, plants selected from these crop and weed species and also winter barley (Hordeum vulgare L.), blackgrass (Alopecurus myosuroides Huds.), canarygrass (Phalaris minor Retz.), chickweed (Stellaria media (L.) Vill.), downy bromegrass (Bromus tectorum L.), green foxtail (Setaria viridis (L.) Beauv.), Italian ryegrass (Lolium multiflorum Lam.), wheat (Triticum aestivum L.), wild oat (Avenafatua L.) and windgrass (Apera spica-venti (L.) Beauv.) were treated with postemergence applications of some of the test chemicals formulated in the same manner. Plants ranged in height from 2 to 18 cm (1- to 4-leaf stage) for postemergence treatments. Plant species in the flooded paddy test consisted of rice (Oryza sativa), smallflower umbrella sedge (Cyperus difformis L.), ducksalad (Heteranthera limosa (Sw.) Willd.) and barnyardgrass (Echinochloa crus-galli (L.) Beauv.) grown to the 2-leaf stage for testing. Treated plants and controls were maintained in a greenhouse for 12 to 14 days, after which time all species were compared to controls and visually evaluated. Plant response ratings, summarized in Table C, are based on a scale of 0 to 100 where 0 is no effect and 100 is complete control. A dash (-) response means no test result.
# [2] = system: kochia; experiment: Test C pre-/postemergence herbicide test; assay type: in vivo, Kochia scoparia
# Text: as §1, §2
# [3] = system: large crabgrass; experiment: Test A pre-/postemergence herbicide test; assay type: in vivo, Digitaria sanguinalis
# Procedure, shortened: (§3)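 Visual injury rating on a 0–100 scale (0 no effect, 100 complete control) versus untreated controls, about ten days after treatment in greenhouse. Pre: directed soil spray onto seeded sandy loam. Post: spray to runoff on plants 2–10 cm tall at one- to two-leaf stage.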
# [4] = system: soybean; experiment: Test C pre-/postemergence herbicide test; assay type: in vivo, Glycine max
# Text: as §1, §2
# [5] = system: lambsquarters; experiment: Test C pre-/postemergence herbicide test; assay type: in vivo, Chenopodium album
# Text: as §1, §2
# [6] = system: giant foxtail; experiment: Test C pre-/postemergence herbicide test; assay type: in vivo, Setaria faberi
# Text: as §1, §2
# [7] = system: bermudagrass; experiment: Test C pre-/postemergence herbicide test; assay type: in vivo, Cynodon dactylon; settings: for Plant response rating (0 = no effect, 100 = complete control), Bermudagrass: 125 g ai/ha
# Text: as §1, §2
# [8] = system: giant foxtail; experiment: Test A pre-/postemergence herbicide test; assay type: in vivo, Setaria faberi
# Procedure, shortened: as §3
# [9] = system: barnyardgrass; experiment: Test A pre-/postemergence herbicide test; assay type: in vivo, Echinochloa crus-galli
# Procedure, shortened: as §3
# [10] = system: barnyardgrass; experiment: Test C flooded paddy test; assay type: in vivo, Echinochloa crus-galli; settings: for Plant response rating, Barnyardgrass: 500 g ai/ha, visual rating after 12 to 14 days
# Procedure, shortened: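 After a postemergence application at 1 to 4 leaves (plants 2–18 cm high), or at 2 leaves for barnyardgrass in flooded paddy, plants stayed in the greenhouse for 12 to 14 days. Damage was then judged visually relative to control plants, with 100 indicating complete control.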
# [11] = system: rice; experiment: Test C flooded paddy test; assay type: in vivo, Oryza sativa; settings: for Plant response rating, Rice: 500 g ai/ha, visual rating after 12 to 14 days
# Procedure, shortened: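 Plants were grown to the 1- to 4-leaf stage (2–18 cm) and then treated postemergence, or grown to the 2-leaf stage for the flooded paddy test. They were held in a greenhouse for 12 to 14 days and then scored by eye against controls, where 0 is no effect and 100 is complete control.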
# [12] = system: ducksalad; experiment: Test C flooded paddy test; assay type: in vivo, Heteranthera limosa; settings: for Plant response rating, Ducksalad: 500 g ai/ha, visual rating after 12 to 14 days
# [13] = Postemergence, 500 g ai/ha, scale 0 to 100
# [14] = Postemergence, 250 g ai/ha, scale 0 to 100, 0 no effect, 100 complete control
# [15] = postemergence, 62 g ai/ha, scale 0 to 100
# [16] = postemergence, 125 g ai/ha, scale 0 to 100
# [17] = Postemergence, 500 g ai/ha, 0 to 100 scale, 0 no effect, 100 complete control
# [18] = Postemergence, 2000 g ai/ha, 0 to 100 scale, 0 no effect, 100 complete control
# [19] = Preemergence, 500 g ai/ha, visual rating, 0 to 100 scale (0 no effect, 100 complete control)
# [20] = Preemergence, 2000 g ai/ha, 0 to 100 scale, 0 no effect, 100 complete control
# [21] = 62 g ai/ha, preemergence, scale 0 to 100
# [22] = 250 g ai/ha, scale 0-100, preemergence
# [23] = 62 g ai/ha, scale 0 to 100 (0 no effect, 100 complete control)
# [24] = 125 g ai/ha, scale 0 to 100 (0 no effect, 100 complete control)
# [25] = 250 g ai/ha, scale of 0 to 100, 0 is no effect, 100 is complete control
# [26] = scale 0 to 100 (0 no effect, 100 complete control)
# [27] = 62 g ai/ha, preemergence, scale 0 to 100, 0 no effect, 100 complete control
# [28] = 500 g ai/ha, scale 0 to 100 (0 no effect, 100 complete control), visual, 12 to 14 days, preemergence
smiles,measurement,setting,value
CCCCOC(=O)c1cccc(NC(=O)c2cc(C(C)(C)C)nn2CC)c1 [Compound 86],"Crabgrass, Large plant response rating",[1]; [13],40
same,"Plant response rating, Crabgrass, Large",[1]; [14],10
same,"Plant response rating, Crabgrass, Large",[1]; [15],10
same,Kochia plant response rating,[2]; [13],95
same,"Plant response rating, Kochia",[2]; [14],95
same,"Plant response rating, Kochia",[2]; [16],85
same,"Plant response rating, Kochia",[2]; [15],80
same,"Crabgrass, Large plant response rating",[3]; [17],20
same,"Plant response rating, Crabgrass, Large",[3]; [18],25
same,"Crabgrass, Large plant response rating",[3]; [19],0
same,"Crabgrass, Large plant response rating",[3]; [20],0
same,Soybean plant response rating,[4]; [13],95
same,"Plant response rating, Soybean",[4]; [14],90
same,"Plant response rating, Soybean",[4]; [16],70
same,"Plant response rating, Soybean",[4]; [15],45
same,Lambsquarters plant response rating,[5]; [13],100
same,"Plant response rating, Lambsquarters",[5]; [14],100
same,"Plant response rating, Lambsquarters",[5]; [16],100
same,"Plant response rating, Lambsquarters",[5]; [15],100
same,"Foxtail, Giant plant response rating",[6]; [13],70
same,"Plant response rating, Foxtail, Giant",[6]; [14],50
same,"Plant response rating, Foxtail, Giant",[6]; [16],20
same,"Plant response rating, Foxtail, Giant",[6]; [15],10
same,Bermudagrass plant response rating,[7]; [13],100
same,"Plant response rating, Bermudagrass",[7]; [14],30
same,"Plant response rating, Bermudagrass",[7]; [15],10
same,"Foxtail, Giant plant response rating",[8]; [17],20
same,"Plant response rating, Foxtail, Giant",[8]; [18],20
same,"Foxtail, Giant plant response rating",[8]; [19],0
same,"Foxtail, Giant plant response rating",[8]; [20],0
same,Barnyardgrass plant response rating,[9]; [17],20
same,"Plant response rating, Barnyardgrass",[9]; [18],20
same,Barnyardgrass plant response rating,[9]; [19],0
same,Barnyardgrass plant response rating,[9]; [20],0
CCc1nn(C(C)(C)C)nc1C(=O)Nc1cccc(C(=O)N(C)CC)c1 [Compound 384],"Plant response rating, Crabgrass, Large",[1]; [21],100
same,"Plant response rating (0 = no effect, 100 = complete control), Crabgrass, Large",[1]; preemergence,100
same,"Plant response rating, Crabgrass, Large",[1]; [22],100
same,"Plant response rating, Kochia",[2]; [21],90
same,"Plant response rating (0 = no effect, 100 = complete control), Kochia","[2]; 125 g ai/ha, preemergence",100
same,"Plant response rating, Kochia",[2]; [22],100
same,Barnyardgrass plant response rating,[10]; [23],65
same,Barnyardgrass plant response rating,[10]; [24],75
same,Barnyardgrass plant response rating,[10]; [25],90
same,"Plant response rating, Barnyardgrass",[10]; [26],95
same,Rice plant response rating,"[11]; 62 g ai/ha, scale 0 to 100",60
same,Rice plant response rating,[11]; [24],65
same,Rice plant response rating,[11]; [25],80
same,"Plant response rating, Rice",[11]; [26],80
same,"Plant response rating, Lambsquarters",[5]; [21],100
same,"Plant response rating (0 = no effect, 100 = complete control), Lambsquarters","[5]; 125 g ai/ha, preemergence",100
same,"Plant response rating, Lambsquarters",[5]; [22],100
same,Ducksalad plant response rating,"[12]; 62 g ai/ha, scale 0 to 100",80
same,Ducksalad plant response rating,[12]; [24],80
same,Ducksalad plant response rating,[12]; [25],80
same,"Plant response rating, Ducksalad",[12]; [26],85
same,"Plant response rating, Foxtail, Giant",[6]; [21],95
same,"Plant response rating (0 = no effect, 100 = complete control), Foxtail, Giant","[6]; 125 g ai/ha, preemergence",100
same,"Plant response rating, Foxtail, Giant",[6]; [22],100
same,"Plant response rating, Bermudagrass","[7]; 31 g ai/ha, scale 0 to 100, 0 no effect, 100 complete control, last section of Table C (species set of preemergence test)",65
same,"Plant response rating, Bermudagrass",[7]; [27],100
same,"Plant response rating (0 = no effect, 100 = complete control), Bermudagrass",[7]; preemergence,100
same,"Plant response rating, Bermudagrass",[7]; [22],100
Cc1nn(C(C)(C)C)nc1C(=O)Nc1cccc(C(=O)N2CC=CC2)c1 [Compound 393],"Plant response rating, Crabgrass, Large",[1]; [21],95
same,"Plant response rating (0 = no effect, 100 = complete control), Crabgrass, Large",[1]; preemergence,100
same,"Plant response rating, Crabgrass, Large",[1]; [22],100
same,"Plant response rating, Crabgrass, Large",[1]; [28],100
same,"Plant response rating, Kochia",[2]; [21],0
same,"Plant response rating (0 = no effect, 100 = complete control), Kochia","[2]; 125 g ai/ha, preemergence",100
same,"Plant response rating, Kochia",[2]; [22],100
same,"Plant response rating, Kochia",[2]; [28],100
same,Barnyardgrass plant response rating,[10]; [23],45
same,Barnyardgrass plant response rating,[10]; [24],65
same,Barnyardgrass plant response rating,[10]; [25],75
same,"Plant response rating, Barnyardgrass",[10]; [26],95
same,Rice plant response rating,"[11]; 62 g ai/ha, scale 0 to 100",45
same,Rice plant response rating,[11]; [24],75
same,Rice plant response rating,[11]; [25],80
same,"Plant response rating, Rice",[11]; [26],85
same,"Plant response rating, Lambsquarters",[5]; [21],100
same,"Plant response rating (0 = no effect, 100 = complete control), Lambsquarters","[5]; 125 g ai/ha, preemergence",100
same,"Plant response rating, Lambsquarters",[5]; [22],100
same,"Plant response rating, Lambsquarters",[5]; [28],100
same,Ducksalad plant response rating,"[12]; 62 g ai/ha, scale 0 to 100",75
same,Ducksalad plant response rating,[12]; [24],75
same,Ducksalad plant response rating,[12]; [25],80
same,"Plant response rating, Ducksalad",[12]; [26],90
same,"Plant response rating, Foxtail, Giant",[6]; [21],70
same,"Plant response rating (0 = no effect, 100 = complete control), Foxtail, Giant","[6]; 125 g ai/ha, preemergence",90
same,"Plant response rating, Foxtail, Giant",[6]; [22],95
same,"Plant response rating, Foxtail, Giant",[6]; [28],100
same,"Plant response rating, Bermudagrass",[7]; [27],60
same,"Plant response rating (0 = no effect, 100 = complete control), Bermudagrass",[7]; preemergence,100
same,"Plant response rating, Bermudagrass",[7]; [22],100
same,"Plant response rating, Bermudagrass",[7]; [28],100
